Test results from patent US6440437B1, “Wet wipes having skin health benefits” (Kimberly-Clark Worldwide, Inc., priority 2000, dated 2002).

Test system: EpiDerm™ skin model (Epi-200)
Assay: EpiDerm skin model: barrier against trypsin and IL-1α pro-inflammatory response
Assay type: cell-based, human
Conditions: 15 microliters formulation 30 min before 10 microliters of 200 μg/ml trypsin; media assayed by ELISA after 6 hours
Method: The EpiDerm™ skin model (Epi-200, Mattek Corporation, Ashland, Mass.) was used to assess the ability of the lipid-enriched wet wipe formulations to enhance skin barrier against permeation of trypsin (a skin irritating, fecal enzyme) and prevent a Interleukin-1α (IL-1α) response which is a measure of inflammation.
Test formulations (15 microliters) were added to the surface of the EpiDerm™ skin model and incubated for 30 minutes at 37° C., 5% CO2 prior to dosing with the fecal enzyme, trypsin. The study was conducted using Epi-200 assay media devoid of hydrocortisone and pH indicator that was prepared by the manufacturer. After 30 minutes, the underlying media was removed and replaced with fresh, pre-warmed media followed by application of 10 microliters of 200 μg/ml of trypsin. The skin wells were incubated for 6 hours before the underlying media was removed and stored for further analysis. […] Also, the amount of IL-1α in the media was measured using commercially available ELISA kits (Quantikine™ Human IL-1α Immunoassay, R&D Systems, Minneapolis, Minn.) specific for IL-1α to assess the ability of the formulations to prevent a pro-inflammatory response by the enzyme compared to the no treatment control.

trypsin
Irritation: Pro-inflammatory Response (IL-1α), Average IL-1α: 108.7
